# Experimental data from ChEMBL document CHEMBL4270505, “Towards antibody-drug conjugates and prodrug strategies with extracellular stimuli-responsive drug delivery in the tumor microenvironment for cancer therapy” (Eur J Med Chem, 2017).
# Experiments:
# [1] = Antitumor activity against human CL1-5 cells xenografted in mouse assessed as disease cure rate; format: functional
# [2] = test system: HT-29; assay: Cytotoxicity in human HT-29 cells assessed as reduction in cell viability; format: functional, cell-based
# [3] = test system: HT-29; assay: Potency index, ratio of IC50 for paclitaxel to IC50 for test compound for cytotoxicity in human HT-29 cells; format: functional
Compound,Activity [1],IC50 [2] [nM],Ratio IC50 [3]
Nc1cccc2nc3c(cc12)Cn1c-3cc2c(c1=O)COC(=O)[C@]2(O)CC(=O)OCc1ccc(O[C@@H]2O[C@H](C(=O)O)[C@@H](O)[C@H](O)[C@H]2O)c([N+](=O)[O-])c1,70 - 85%,–,–
CC(=O)O[C@H]1C(=O)[C@@]2(C)[C@H]([C@H](OC(=O)c3ccccc3)[C@]3(O)C[C@H](OC(=O)[C@H](OC(=O)OCCN(C)C(=O)OCc4ccc(O[C@@H]5O[C@H](C(=O)O)[C@@H](O)[C@H](O)[C@H]5O)cc4)[C@@H](NC(=O)c4ccccc4)c4ccccc4)C(C)=C1C3(C)C)[C@]1(OC(C)=O)CO[C@@H]1C[C@@H]2O,–,26,164
